Values after ≈ are worked out from the molar mass of the structure shown.
How the values were obtained:
Plasmodium falciparum [1] = experiment: Antimalarial activity against Plasmodium falciparum 3D7 asexual blood stage infected in human erythrocytes incubated for 72 hrs by LDH assay; type: functional, cell-based; details: 3D7, 72 h
HepG2 = experiment: Cytotoxicity against human HepG2 cells assessed as growth inhibition after 48 hrs by Cell Titer-Glo assay; type: cell-based; details: HepG2, 48 h
[2] = Selectivity index, ratio of EC50 for human HepG2 cells to EC50 for Plasmodium falciparum 3D7 asexual blood stage infected in human erythrocytes; type: toxicity, cell-based; details: read-out: Ratio EC50
Plasmodium falciparum [3] = experiment: Antimalarial activity against Plasmodium falciparum NF54 harboring pfs16-LUC-GFP early stage 1 to 3 gametocytes after 48 hrs by MitoTracker Red staining based confocal microscopy; type: functional; details: NF54, 48 h
Plasmodium falciparum [4] = experiment: Antimalarial activity against Plasmodium falciparum NF54 harboring pfs16-LUC-GFP ring stage gametocytes after 24 hrs by MitoTracker Red staining based confocal microscopy; type: functional; details: NF54, 24 h
Plasmodium falciparum [5] = experiment: Antimalarial activity against Plasmodium falciparum NF54 harboring pfs16-LUC-GFP late stage 4 to 5 gametocytes after 48 hrs by MitoTracker Red staining based confocal microscopy; type: functional; details: NF54, 48 h
Plasmodium falciparum [6] = experiment: Antimalarial activity against chloroquine and mefloquine resistant Plasmodium falciparum W2mef infected in human erythrocytes incubated for 72 hrs by LDH assay; type: functional, cell-based
[7] = Intrinsic clearance in mouse liver microsomes at 1 uM in presence of NADPH by LC-MS method; type: ADME, microsome; details: read-out: CLH
[8] = Hepatic extraction ratio in mouse liver microsomes at 1 uM in presence of NADPH by LC-MS method; type: ADME, microsome; details: read-out: ERH
[9] = Aqueous solubility of the compound at pH 6.5 by nephelometry; type: physicochemical
[10] = Half life in human liver microsomes at 1 uM in presence of NADPH by LC-MS method; type: ADME, microsome
[11] = Hepatic extraction ratio in human liver microsomes at 1 uM in presence of NADPH by LC-MS method; type: ADME, microsome; details: read-out: ERH
[12] = Intrinsic clearance in human liver microsomes at 1 uM in presence of NADPH by LC-MS method; type: ADME, microsome; details: read-out: CLH
[13] = Aqueous solubility of the compound at pH 2 by nephelometry; type: physicochemical
[14] = Half life in mouse liver microsomes at 1 uM in presence of NADPH by LC-MS method; type: ADME, microsome

EC50 (Plasmodium falciparum [1]) [nM] | Structure (SMILES) | EC50 (HepG2) [nM] | selectivity ratio [2] | also measured
64 | CN1CCN(C(=O)CNc2nc(Nc3ccc(F)cc3)nc3ccccc23)CC1 | 30400 | 473 | –
866 | Fc1ccc(Nc2nc(NCc3ccccc3)c3sccc3n2)cc1 | 18700 | – | –
144 | Fc1cccc(Nc2nc(NCC3CCCO3)c3ccccc3n2)c1 (configuration not stated) | 8600 | 39 | –
102 | FC(F)(F)c1ccc(Nc2nc(NCc3ccccc3)c3ccccc3n2)cn1 | 8900 | 87 | –
136 | CNc1nc(Nc2ccc(F)cc2)nc2ccccc12 | 16200 | 119 | –
636 | Fc1ccc(Nc2nc(NCc3ccccc3)c3cccnc3n2)cc1 | 12400 | – | –
7700 | COc1ccc(Nc2nc(N3CCOCC3)c3ccccc3n2)cc1 | 25600 | 3 | –
317 | Fc1ccccc1Nc1nc(NCC2CCCO2)c2ccccc2n1 (configuration not stated) | 21300 | 75 | –
77 | Fc1ccc(Nc2nc(NCc3ccccc3)c3ccccc3n2)cc1 | 5100 | 67 | –
134 | Clc1cccc(Nc2nc(NCc3ccco3)c3ccccc3n2)c1 | 5000 | 37 | –
57 | Fc1ccc(Nc2nc(NCc3ccccc3)c3ncccc3n2)cc1 | 18200 | 320 | –
105 | FC(F)(F)c1ccc(Nc2nc(NCc3ccccc3)c3ccccc3n2)cc1 | 6400 | – | –
169 | c1ccc2c(NCC3CCCO3)nc(Nc3ccc4c(c3)OCO4)nc2c1 (configuration not stated) | 8600 | 51 | –
– | COc1ccc2nc3cc(Cl)ccc3c(Nc3cc(CN4CCCC4)c(O)c(CN4CCCC4)c3)c2n1 [PYRONARIDINE] | – | – | EC50 (Plasmodium falciparum [3]): 25 nM; EC50 (Plasmodium falciparum [4]): 16 nM; EC50 (Plasmodium falciparum [5]): 1400 nM
283 | CN1CCC(Nc2nc(Nc3ccc(Cl)c(F)c3)nc3cccnc23)CC1 | 11100 | 39 | –
125 | Brc1ccc(Nc2nc(NCc3ccco3)c3ccccc3n2)cc1 | 19000 | 153 | –
569 | NC(=O)c1ccc(Nc2nc(NCc3ccco3)c3ccccc3n2)cc1 | 20000 | 35 | –
526 | COc1ccccc1Nc1nc(NCC2CCCO2)c2ccccc2n1 (configuration not stated) | 24500 | 47 | –
702 | CC(O)c1ccc(Nc2nc(NCc3ccco3)c3ccccc3n2)cc1 (configuration not stated) | 12600 | – | –
118 | Fc1ccc(Nc2nc(NCCN3CCOCC3)c3ccccc3n2)cc1 | 30100 | 256 | –
539 | Fc1ccc(Nc2nc(NCc3ccccc3)c3ccncc3n2)cc1 | 17800 | 33 | –
1100 | COc1ccc(Nc2nc(NCC3CCCO3)c3ccccc3n2)c(OC)c1 (configuration not stated) | 15800 | 19 | –

EC50 (Plasmodium falciparum [1]) [nM] | Structure (SMILES) | EC50 (HepG2) [nM] | selectivity ratio [2] | also measured
155 | CNc1nc(Nc2ccc(OC)cc2)nc2ccccc12 | 26100 | 168 | –
51 | CN1CCC(Nc2nc(Nc3ccc(F)cc3)nc3ccccc23)CC1 | 11500 | 227 | –
124 | COc1ccc(Nc2nc(NCc3ccco3)c3ccccc3n2)cc1 | 2500 | 20 | –
– | Clc1ccc(Nc2nc(NCc3ccco3)c3ccccc3n2)cc1 | 7400 | 71 | –
418 | CN(C)c1nc(Nc2ccc(F)cc2)nc2ccccc12 | 20100 | 48 | –
112 | Fc1ccc(Nc2nc(NCc3ccco3)c3ccccc3n2)cc1 | 4900 | 43 | –
134 | CN1CCC(Nc2nc(Nc3ccc(F)c(Cl)c3)nc3cccnc23)CC1 | 11500 | 86 | –
1300 | COc1cccc(Nc2nc(NCc3ccco3)c3ccccc3n2)c1OC | 20100 | – | –
104 | CN(C)CCNc1nc(Nc2ccc(F)cc2)nc2ccccc12 | 27900 | 267 | –
7600 | Cn1ncc2c(NCc3ccccc3)nc(Nc3ccc(F)cc3)nc21 | 26000 | 3 | –
574 | COC(=O)c1ccc(Nc2nc(NCc3ccco3)c3ccccc3n2)cc1 | 33500 | 58 | –
274 | CC(=O)Nc1ccc(Nc2nc(NCC3CCCO3)c3ccccc3n2)cc1 (configuration not stated) | 38300 | 140 | –
– | COc1cccc(Nc2nc(NCC3CCCO3)c3ccccc3n2)c1 (configuration not stated) | 7700 | 33 | –
77 | Fc1ccc(Nc2nc(NCCN3CCCC3)c3ccccc3n2)cc1 | 26500 | 343 | –
109 | Cc1ccc(Nc2nc(NCc3ccco3)c3ccccc3n2)cc1 | 5900 | 54 | –
110 | CN1CCN(CCNc2nc(Nc3ccc(F)c(Cl)c3)nc3cccnc23)CC1 | 8900 | 80 | –
1200 | Cn1cnc2nc(Nc3ccc(F)cc3)nc(NCc3ccccc3)c21 | 9000 | 7 | –
691 | NC(=O)c1ccc(Nc2nc(NCC3CCCO3)c3ccccc3n2)cc1 (configuration not stated) | 34600 | 50 | –
128 | CN1CCN(CCNc2nc(Nc3ccc(Cl)c(F)c3)nc3cccnc23)CC1 | 12300 | 96 | –
– | COc1cc([C@@H]2c3cc4c(cc3[C@@H](O[C@@H]3O[C@@H]5CO[C@@H](C)O[C@H]5[C@H](O)[C@H]3O)[C@H]3COC(=O)[C@H]23)OCO4)cc(OC)c1O [ETOPOSIDE] | 15900 | – | –
159 | CCOc1ccc(Nc2nc(NCc3ccccc3)c3ccccc3n2)cc1 | 4500 | 29 | –
264 | COc1ccc(Nc2nc(NCc3ccccc3)c3ccccc3n2)cc1 | 8500 | 32 | microsomal CLint at 1 µM [7]: 123 µL/min/mg; hepatic extraction ratio at 1 µM [8]: 0.73; solubility kinetic [9]: 1.6 to 3.1 µM (≈ 0.57 to 1.1 µg/mL); half-life at 1 µM [10]: 65 min; hepatic extraction ratio at 1 µM [11]: 0.51; microsomal CLint at 1 µM [12]: 27 µL/min/mg; solubility kinetic [13]: 25 to 50 µM (≈ 8.91 to 17.8 µg/mL); half-life at 1 µM [14]: 14 min

Structure (SMILES) | EC50 (Plasmodium falciparum [1]) [nM] | EC50 (HepG2) [nM] | selectivity ratio [2] | also measured
Fc1cc(Nc2nc(NCc3ccccc3)c3ccccc3n2)ccc1Cl | 121 | 6600 | 55 | EC50 (Plasmodium falciparum [6]): 75 nM
Fc1ccc(Nc2nc(NCc3ccccc3)c3ccccc3n2)cc1Cl | 56 | 6300 | 114 | EC50 (Plasmodium falciparum [6]): 80 nM
C[C@H]1[C@H](OC(=O)CCC(=O)O)O[C@@H]2O[C@@]3(C)CC[C@H]4[C@H](C)CC[C@@H]1[C@@]24OO3 [ARTESUNATE] | 8 | – | – | EC50 (Plasmodium falciparum [3]): 3 nM; EC50 (Plasmodium falciparum [4]): 3 nM; EC50 (Plasmodium falciparum [5]): 8 nM; EC50 (Plasmodium falciparum [6]): 6 nM
Clc1cc(Nc2nc(NCc3ccccc3)c3ccccc3n2)ccc1Br | 137 | 2900 | 40 | EC50 (Plasmodium falciparum [6]): 128 nM
CN1CCN(CCNc2nc(Nc3ccc(F)cc3)nc3ccccc23)CC1 | 42 | 15300 | 362 | EC50 (Plasmodium falciparum [6]): 122 nM
